pEC50: −log10 of the molar value.

For orientation: pEC50 means the negative decadic logarithm of the EC50, by convention in mol/L.

The assay addresses T1, T1R umami taste receptor (Homo sapiens, UniProt Q7RTX0+Q7RTX1).
T1 sequence (Q7RTX1 21-841): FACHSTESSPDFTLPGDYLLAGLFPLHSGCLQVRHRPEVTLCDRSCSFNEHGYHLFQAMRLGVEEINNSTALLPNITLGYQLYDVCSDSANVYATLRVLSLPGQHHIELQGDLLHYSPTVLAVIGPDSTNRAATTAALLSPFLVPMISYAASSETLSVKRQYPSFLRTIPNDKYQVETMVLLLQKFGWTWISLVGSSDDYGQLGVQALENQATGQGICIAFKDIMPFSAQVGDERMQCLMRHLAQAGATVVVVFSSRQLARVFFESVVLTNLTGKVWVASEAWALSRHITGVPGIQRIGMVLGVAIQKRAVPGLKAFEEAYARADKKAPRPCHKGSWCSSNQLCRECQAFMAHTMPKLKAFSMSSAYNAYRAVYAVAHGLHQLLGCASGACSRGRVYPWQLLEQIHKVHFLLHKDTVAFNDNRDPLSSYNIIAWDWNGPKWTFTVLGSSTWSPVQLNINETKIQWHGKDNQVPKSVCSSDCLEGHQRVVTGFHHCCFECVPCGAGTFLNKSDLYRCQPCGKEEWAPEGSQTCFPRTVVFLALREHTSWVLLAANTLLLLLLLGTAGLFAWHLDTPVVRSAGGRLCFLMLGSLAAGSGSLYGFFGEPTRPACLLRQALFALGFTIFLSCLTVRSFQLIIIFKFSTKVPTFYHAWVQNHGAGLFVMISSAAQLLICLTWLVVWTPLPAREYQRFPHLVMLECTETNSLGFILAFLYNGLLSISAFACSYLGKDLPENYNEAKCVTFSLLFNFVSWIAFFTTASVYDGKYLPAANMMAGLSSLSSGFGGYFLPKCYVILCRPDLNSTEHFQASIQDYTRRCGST
T1 sequence (Q7RTX0 21-852): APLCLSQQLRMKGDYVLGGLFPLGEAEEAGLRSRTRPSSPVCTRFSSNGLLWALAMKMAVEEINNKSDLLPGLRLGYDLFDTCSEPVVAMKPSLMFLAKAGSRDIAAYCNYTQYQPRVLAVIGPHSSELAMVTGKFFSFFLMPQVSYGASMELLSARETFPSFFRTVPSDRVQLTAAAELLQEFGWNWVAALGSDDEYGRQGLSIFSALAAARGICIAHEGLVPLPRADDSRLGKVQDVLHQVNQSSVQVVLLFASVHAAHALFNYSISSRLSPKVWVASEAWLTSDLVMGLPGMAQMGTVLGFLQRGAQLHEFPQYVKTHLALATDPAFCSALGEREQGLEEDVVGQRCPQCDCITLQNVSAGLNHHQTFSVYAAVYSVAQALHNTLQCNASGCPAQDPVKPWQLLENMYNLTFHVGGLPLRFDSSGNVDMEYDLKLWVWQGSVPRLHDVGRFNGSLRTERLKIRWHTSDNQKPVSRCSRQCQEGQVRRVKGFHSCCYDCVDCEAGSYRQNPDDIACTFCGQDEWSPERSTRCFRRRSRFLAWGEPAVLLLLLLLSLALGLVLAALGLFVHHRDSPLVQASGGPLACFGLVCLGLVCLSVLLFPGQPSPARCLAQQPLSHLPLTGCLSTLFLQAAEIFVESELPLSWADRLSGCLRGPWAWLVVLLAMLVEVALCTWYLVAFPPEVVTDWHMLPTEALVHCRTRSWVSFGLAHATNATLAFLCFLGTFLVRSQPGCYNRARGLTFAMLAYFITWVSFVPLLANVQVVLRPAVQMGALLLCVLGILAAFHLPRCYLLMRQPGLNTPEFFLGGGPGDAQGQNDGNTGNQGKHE
Nature of the assay: in vitro cell-based assay, enhancement of MSG binding at umami taste receptor. The following applies: cells that express the T1R umami taste receptor, from dose-binding curves. On the procedure:
Each of Compounds 101-135, as well as Compounds 168 and 169, (as set forth in Table 1) was synthesized according to one of the general procedures set forth above in Examples 1 to 4. Thereafter, the compounds were tested in an in vitro cell-based assay having cells that express the T1R umami taste receptor. Dose-binding curves were recorded and the EC50 was determined for enhancement of MSG binding. Table 2 sets forth the calculated EC50 values for certain tested compounds.
As to `C/C=C(\C)C(=O)NCCCCNC(=O)c1ccc(C)cc1` [Compound 102], the pEC50 was 5.10. With `C/C=C(\C)C(=O)NCCCCNC(=O)c1ccc(C)c(C)c1` [Compound 103] the figure was above 6.00; with `C/C=C(\C)C(=O)NCCCCNC(=O)c1cc(C)c(C)c(C)c1` [Compound 104], 5.70.

With `C/C=C(\C)C(=O)NCCCCNC(=O)c1ccc(OC)cc1` [Compound 105], the pEC50 was 4.92. The figure for `C/C=C(\C)C(=O)NCCCCNC(=O)c1ccc2c(c1)OCO2` [Compound 106] is 5.22. With `CC(=O)NCCCCNC(=O)/C=C/c1ccccc1` [Compound 107] the figure was below 4.30; with `CC(C)C(=O)NCCCCNC(=O)/C=C/c1ccccc1` [Compound 108], below 4.30. With `CCC(C)C(=O)NCCCCNC(=O)/C=C/c1ccccc1` (stereo not shown) [Compound 109] the figure was below 4.30; with `C/C=C(/C)C(=O)NCCCCNC(=O)/C=C/c1ccccc1` [Compound 114], below 4.30. For `C/C=C(\C)C(=O)NCCCCNC(=O)/C=C/c1ccccc1` [Compound 115, (E)-N-(4-cinnamamidobuty1)-2-methylbut-2-enamide], the pEC50 was above 5.10. With `CC(C)=CC(=O)NCCCCNC(=O)/C=C/c1ccccc1` [Compound 116, N-(4-cinnamamidobutyl)-3-methylbut-2-enamide] the figure was below 4.30; with `CC(C)=C(C)C(=O)NCCCCNC(=O)/C=C/c1ccccc1` [Compound 117, N-(4-cinnamamidobutyl)-2,3-dimethylbut-2-enamide], below 4.30; with `CC/C=C(\C)C(=O)NCCCCNC(=O)/C=C/c1ccccc1` [Compound 118, (E)-N-(4-cinnamamidobuty1)-2-methylpent-2-enamide], below 4.30. As for `C/C(=C\CO)C(=O)NCCCCNC(=O)/C=C/c1ccccc1` [Compound 119, (E)-N-(4-cinnamamidobutyl)-4-hydroxy-2-methylbut-2-enamide], the pEC50 is above 4.92. With `O=C(/C=C/c1ccccc1)NCCCCNC(=O)/C=C/c1ccccc1` [Compound 122, (2E,2′E)-N,N′-(butane-1,4-diyl)bis(3-phenylacrylamide)] the figure was below 4.30; with `O=C(/C=C/c1ccccc1)NCCCCNC(=O)c1ccccc1` [Compound 123, N-(4-cinnamamidobutyl)benzamide], below 4.30. With `O=C(/C=C/c1ccccc1)NCCCCNC(=O)c1ccc(O)cc1` [Compound 126, N-(4-cinnamamidobutyl)-4-hydroxybenzamide] the figure was below 4.30. `C/C=C(\C)C(=O)NCCCCNC(=O)/C=C/c1ccccc1OC` [Compound 127, (E)-N-(4-((E)-3-(2-methoxyphenyl)acrylamido)butyl)-2-methylbut-2-enamide]: the pEC50 is 5.70. With `C/C=C(\C)C(=O)NCCCCNC(=O)/C=C/c1cccc(OC)c1` [Compound 128, (E)-N-(4-((E)-3-(3-methoxyphenyl)acrylamido)butyl)-2-methylbut-2-enamide], the pEC50 was 5.70. With `C/C=C(\C)C(=O)NCCCCNC(=O)/C=C/c1ccc(OC)cc1` [Compound 129, (E)-N-(4-((E)-3-(4-methoxyphenyl)acrylamido)butyl)-2-methylbut-2-enamide] the figure was above 6.00; with `C/C=C(\C)C(=O)NCCCCNC(=O)/C=C/c1ccc(OCC)cc1` [Compound 130, (E)-N-(4-((E)-3-(4-ethoxyphenyl)acrylamido)butyl)-2-methylbut-2-enamide], above 6.00; with `C/C=C(\C)C(=O)NCCCCNC(=O)/C=C/c1ccc(OC)cc1OC` [Compound 131, (E)-N-(4-((E)-3-(2,4-dimethoxyphenyl)acrylamido)butyl)-2-methylbut-2-enamide], above 6.00.

In the case of `C/C=C(\C)C(=O)NCCCCNC(=O)/C=C/c1ccc(OC)c(OC)c1` [Compound 132, (E)-N-(4-((E)-3-(3,4-dimethoxyphenyl)acrylamido)butyl)-2-methylbut-2-enamide], the pEC50 was 5.40. The figure for `C/C=C(\C)C(=O)NCCCCNC(=O)/C=C/c1ccc2c(c1)OCO2` [Compound 133, (E)-N-(4-((E)-3-(benzo[d][1,3]dioxol-5-yl)acrylamido)butyl)-2-methylbut-2-enamide] is 4.70; for `C/C=C(\C)C(=O)NCCCCNC(=O)/C=C/c1ccc(OC)c(O)c1` [Compound 134, (E)-N-(4-((E)-3-(3-hydroxy-4-methoxyphenyl)acrylamido)butyl)-2-methylbut-2-enamide] it is below 4.30; for `C/C=C(\C)C(=O)NCCCCNC(=O)/C=C/c1ccc(O)c(OC)c1` [Compound 135, (E)-N-(4-((E)-3-(4-hydroxy-3-methoxyphenyl)acrylamido)butyl)-2-methylbut-2-enamide] it is below 4.30.

As for `CC(=O)OC/C=C(\C)C(=O)NCCCCNC(=O)/C=C/c1ccccc1` [Compound 168, (E)-4-((4-cinnamamidobutyl)amino)-3-methyl-4-oxobut-2-en-1-yl acetate], the pEC50 is above 6.00. The figure for `COc1ccc(C(=O)OC/C=C(\C)C(=O)NCCCCNC(=O)/C=C/c2ccccc2)cc1` [Compound 169, (E)-4-((4-cinnamamidobutyl)amino)-3-methyl-4-oxobut-2-en-1-yl 4-methoxy benzoate] is 4.64.

For the origin of these results see patent US20240315299A1, “AMIDE COMPOUNDS AND THEIR USE AS FLAVOR MODIFIERS” (FIRMENICH INCORPORATED, priority 2021, published 2024).
